Laboratory results as given in patent publication US20150346214A1, “DETECTION OF MEMBRANE PROTEINS” (priority 2012, published 2015).
“Also recorded” adds a separate entry of the source.

How the values were obtained:
Aquaporin Z (AQPZ) [1] = target: T1, Aquaporin Z (AQPZ) (Escherichia coli, UniProt P60844); experiment: Phospholipid binding to AQPZ resolved by native MS / IM-MS in C8E4; parameters: species or system E. coli; conditions: AQPZ in C8E4; optimised P:L:D ratio of Table 2
ammonia channel (AmtB) [2] = target: T2, ammonia channel (AmtB) (Escherichia coli, UniProt P69681); experiment: Gas-phase (collision-induced) unfolding IM-MS: stabilisation of AmtB by bound phospholipid; assay type: binding, E. coli; conditions: +15 charge state, versus apo form
Procedure: (§1) IM-MS was used to resolve individual phospholipid-bound states of membrane proteins, in folded conformations, devoid of the complication of the lipid bilayer. Bound phospholipids were then ranked based on their ability to prevent gas-phase unfolding. Combining the IM-MS data for the three protein complexes with molecular dynamic (MD) simulations, probable lipid binding sites were then identified.
Ion mobility measurements were performed on a modified Synapt G1 HDMS instrument with the travelling-wave on mobility cell replaced by an 18-cm drift cell with radial RF on confinement and a linear voltage gradient to direct ions along the axis of transmission to the time-of-flight (TOF) mass analyser. Ion mobility mass spectrometer was typically set to a source pressure of 5-7 mBar, capillary voltage of 1.4-1.7 kV, capillary nanoflow of 0.03-0.2 mBar and argon as collision gas with flow rate set to 5-8 mL/min (˜6.6-6.7 e-2 mBar). Collision voltage ranged from 2-240 V with measurements taken at 5 V and 2 V steps for monitoring gas-phase unfolding of membrane and soluble protein complexes, respectively. The sample and extraction cone and trap bias voltages, quadrupole profile, and collision gas pressure were optimized for maximal ion intensity of the target membrane protein complex. Helium was the drift cell gas and set to a pressure of ˜1.6-1.8 Torr (40 ml/min flow rate). Pusher time, pulse width and TDC inhibit were set to 180, 7 and 7 μs, respectively. The ion guide/source (300 ms^−1, 10 V), trap (300 ms^−1, 0.2 V) and transfer (100 ms^−1, 10 V) travelling wave velocities and wave heights were kept constant. The mobility release time was set at 200 μs with a trap voltage of 30 V and extract voltage of 10 V. Pressure and temperature of the ion mobility cell was measured directly. Ion drift time (td) was determined as described in Bush et al (Analytical Chemistry, 2010, 82, 9557-.9565).
Ion mobility data were imported using a custom script provided by Waters at an m/z resolution of four in drift data and one in mass spectra for fitting. Mass spectra were smoothed and theoretical mass spectra were fitted as outlined above. A standardized integration window was employed for extracting arrival time distributions (ATD) using a resolution (R=[…]) of 1000 and a height cut-off of 25% for the modelled Gaussian to the respective m/z peak. […]
To extract quantitative values for the effects of phospholipid binding on unfolding pathways, an established equilibrium unfolding model, used extensively in solution studies involving chemical denaturation, was applied. […] By comparing the apo form of the protein with lipid bound states, the average stabilisation was calculated by fitting the unfolding pathway for the most abundant charge state, identifying four distinct intermediate states. […]

ammonia channel (AmtB) [3] = target: T2, ammonia channel (AmtB); experiment: Phospholipid binding to AmtB resolved by native MS / IM-MS in C8E4; parameters: species or system E. coli; conditions: for # Bound (number of resolvable phospholipids bound): AmtB in C8E4, optimised P:L:D ratio of Table 2; for extent of phospholipid binding to AmtB: in words, co-transport into the gas phase
[4] = target: T3, mechanosensitive channel of large conductance (MscL) (Mycobacterium tuberculosis, UniProt P9WJN5); experiment: Phospholipid binding to MscL resolved by native MS / IM-MS in C8E4; conditions: optimised P:L:D ratio of Table 2
T3 sequence (P9WJN5 1-151): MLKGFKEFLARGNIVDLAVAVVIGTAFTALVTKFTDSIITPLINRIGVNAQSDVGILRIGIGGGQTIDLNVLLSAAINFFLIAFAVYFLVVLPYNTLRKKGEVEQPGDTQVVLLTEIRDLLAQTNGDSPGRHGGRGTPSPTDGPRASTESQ

Aquaporin Z (AQPZ) [5] = target: T1, Aquaporin Z (AQPZ); experiment: Gas-phase (collision-induced) unfolding IM-MS: stabilisation of AQPZ by bound phospholipid; assay type: binding, E. coli; conditions: +13 charge state, versus apo form
Procedure: as §1
Ion mobility measurements were performed on a modified Synapt G1 HDMS instrument with the travelling-wave on mobility cell replaced by an 18-cm drift cell with radial RF on confinement and a linear voltage gradient to direct ions along the axis of transmission to the time-of-flight (TOF) mass analyser. […] The mobility release time was set at 200 μs with a trap voltage of 30 V and extract voltage of 10 V. Pressure and temperature of the ion mobility cell was measured directly. Ion drift time (td) was determined as described in Bush et al (Analytical Chemistry, 2010, 82, 9557-.9565). […]
To extract quantitative values for the effects of phospholipid binding on unfolding pathways, an established equilibrium unfolding model, used extensively in solution studies involving chemical denaturation, was applied. […]

T2 sequence (P69681 26-428): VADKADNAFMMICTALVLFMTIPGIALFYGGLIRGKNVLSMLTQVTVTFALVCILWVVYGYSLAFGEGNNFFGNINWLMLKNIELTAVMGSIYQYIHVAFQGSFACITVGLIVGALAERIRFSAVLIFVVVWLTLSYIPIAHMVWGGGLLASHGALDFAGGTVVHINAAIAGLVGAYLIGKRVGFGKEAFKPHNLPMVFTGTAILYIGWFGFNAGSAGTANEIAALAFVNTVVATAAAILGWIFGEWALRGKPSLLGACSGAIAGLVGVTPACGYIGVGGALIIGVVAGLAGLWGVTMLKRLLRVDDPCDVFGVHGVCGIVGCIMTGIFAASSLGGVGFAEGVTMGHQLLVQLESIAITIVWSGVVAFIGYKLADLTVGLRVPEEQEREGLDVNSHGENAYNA
T1 sequence (P60844 whole entry): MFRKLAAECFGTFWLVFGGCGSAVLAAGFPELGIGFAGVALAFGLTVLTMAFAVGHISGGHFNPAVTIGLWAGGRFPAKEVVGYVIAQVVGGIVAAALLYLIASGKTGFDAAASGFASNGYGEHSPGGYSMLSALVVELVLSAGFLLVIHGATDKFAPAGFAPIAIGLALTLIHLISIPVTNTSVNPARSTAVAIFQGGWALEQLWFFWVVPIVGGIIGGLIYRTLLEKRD

| Compound | # Bound (number of resolvable phospholipids bound) (Aquaporin Z (AQPZ) [1]) | average stabilisation of AmtB by bound phospholipid (resistance to gas-phase unfolding) (ammonia channel (AmtB) [2]) | # Bound (number of resolvable phospholipids bound) (ammonia channel (AmtB) [3]) | extent of phospholipid binding to AmtB (ammonia channel (AmtB) [3]) | # Bound (number of resolvable phospholipids bound) [4] | bound phospholipid molecules (ammonia channel (AmtB) [3]; AmtB, moderate collision activation 175 V (FIG. 7a)) | average stabilisation of AQPZ by bound phospholipid (resistance to gas-phase unfolding) (Aquaporin Z (AQPZ) [5]) |
| --- | --- | --- | --- | --- | --- | --- | --- |
| CCCCCCCC/C=C\CCCCCCCC(=O)O[C@H](COC(=O)CCCCCCCCCCCCCCC)COP(=O)(O)OC[C@H](N)C(=O)O [PS, 1-palmitoyl-2-oleoyl-sn-glycero-3-phospho-L-serine (16:0-18:1)] | 3 | not correlated with significant stabilisation | 3 | extensive | 2 | – | – |
| L-α-phosphatidylglycerol (E. coli) [PG] | 3 | dramatic increase in stabilisation; also recorded: significant stabilisation | 4 | – | 2 | one to four | – |
| CCCCCCCC/C=C\CCCCCCCC(=O)O[C@H](COC(=O)CCCCCCCCCCCCCCC)COP(=O)(O)O [PA, 1-palrnitoyl-2-oleoyl-sn-glycero-3-phosphate (16:0-18:1)] | 2 | not correlated with significant stabilisation | 3 | extensive | 1 | – | – |
| Cardiolipin (E. coli) [CDL] | 1 | significant stabilisation | 1 | only low populations | 1 | – | substantial increase in protein stability compared to all other phospholipids; also recorded: stabilises AQPZ significantly |
